Usually Kd stands for the equilibrium constant for the complex coming apart. A low value points to a tighter complex.

Three molecules from publication PMC9596375 (2022) can be followed below.

Experiment [1] concerns X2B2-C14U (RNA, aptamer) GGAUACACAAGAGUGAUUGAAACUAAGUCUGUGUAUCC
The experiment can be described thus: ITC. Conditions: 20 mM MgCl2; 10 mM Tris-HCl pH 7.5, 30 °C.

The subject of experiment [2] is X2B2 (RNA, aptamer) GGAUACACAAGAGCGAUUGAAACUAAGUCUGUGUAUCC
Kind of experiment: ITC. To be noted: 20 mM MgCl2; 10 mM Tris-HCl pH 7.5, 30 °C.

Experiment [3] relates to X2B2-C14U-dG13-dU18 (RNA, aptamer, 2'-deoxy at G13 and U18) GGAUACACAAGAGUGAUUGAAACUAAGUCUGUGUAUCC
The experiment can be described thus: UV-Vis absorbance shift. Conditions: 30 mM MgCl2, 140 mM KCl, 10 mM NaCl; 50 mM Tris pH 7.0; ∆λmax 7.

Experiment [4] deals with X2B2-C14U-dU18 (RNA, aptamer, 2'-deoxy at U18) GGAUACACAAGAGUGAUUGAAACUAAGUCUGUGUAUCC
Kind of experiment: UV-Vis absorbance shift. Conditions: 30 mM MgCl2, 140 mM KCl, 10 mM NaCl; 50 mM Tris pH 7.0; ∆λmax 7.

Experiment [5] concerns X2B2-C14U-dG13 (RNA, aptamer, 2'-deoxy at G13) GGAUACACAAGAGUGAUUGAAACUAAGUCUGUGUAUCC
Kind of experiment: UV-Vis absorbance shift. To be noted: 30 mM MgCl2, 140 mM KCl, 10 mM NaCl; 50 mM Tris pH 7.0; ∆λmax 10.

The test system of experiment [6] is X2B2-D2 (RNA, aptamer) GGAUACACAAGAGCACUUGAAACUAAGUCUGUGUAUCC
Kind of experiment: UV-Vis absorbance shift. Conditions: 30 mM MgCl2, 140 mM KCl, 10 mM NaCl; 50 mM Tris pH 7.0; 40 µM RNA, 40 µM FAD; ∆λmax 4.

The subject of experiment [7] is X2B2-C3 (RNA, aptamer) GGAUACAGUAGAGCGAUUGAAACUAAGUCACUGUAUCC
Kind of experiment: UV-Vis absorbance shift. Conditions: 30 mM MgCl2, 140 mM KCl, 10 mM NaCl; 50 mM Tris pH 7.0; 40 µM RNA, 40 µM FAD; ∆λmax 5.

For experiment [8], the system named is X2B2-C14G (RNA, aptamer) GGAUACACAAGAGGGAUUGAAACUAAGUCUGUGUAUCC
Kind of experiment: UV-Vis absorbance shift. Conditions: 30 mM MgCl2, 140 mM KCl, 10 mM NaCl; 50 mM Tris pH 7.0; 40 µM RNA, 40 µM FAD; ∆λmax 2.

Experiment [9] concerns X2B2-G13U (RNA, aptamer) GGAUACACAAGAUCGAUUGAAACUAAGUCUGUGUAUCC
Kind of experiment: UV-Vis absorbance shift. Conditions: 30 mM MgCl2, 140 mM KCl, 10 mM NaCl; 50 mM Tris pH 7.0; 40 µM RNA, 40 µM FAD; ∆λmax 1.

Experiment [10] deals with Neg (RNA, other) GGAACUGCGAUCUAGUGAGACUGACUCGUGAUCGGA
Kind of experiment: UV-Vis absorbance shift. Conditions: 30 mM MgCl2, 140 mM KCl, 10 mM NaCl; 50 mM Tris pH 7.0.

Experiment [11] relates to X2B2-C14U-BT1 (RNA, aptamer) GGAUACAAACGAGUGAUUGAAACUAAGUCGUUGUAUCC
The experiment can be described thus: UV-Vis absorbance shift. Conditions: 30 mM MgCl2, 140 mM KCl, 10 mM NaCl; 50 mM Tris pH 7.0; 40 µM RNA, 40 µM FAD; ∆λmax 9.

For experiment [12], the system named is X2B2-A20U (RNA, aptamer) GGAUACACAAGAGCGAUUGUAACUAAGUCUGUGUAUCC
Kind of experiment: UV-Vis absorbance shift. To be noted: 30 mM MgCl2, 140 mM KCl, 10 mM NaCl; 50 mM Tris pH 7.0; 40 µM RNA, 40 µM FAD; ∆λmax 0.

For experiment [13], the system named is X2B2-A25U (RNA, aptamer) GGAUACACAAGAGCGAUUGAAACUUAGUCUGUGUAUCC
Kind of experiment: UV-Vis absorbance shift. To be noted: 30 mM MgCl2, 140 mM KCl, 10 mM NaCl; 50 mM Tris pH 7.0; 40 µM RNA, 40 µM FAD; ∆λmax 2.

Experiment [14] deals with X2B2-C23U (RNA, aptamer) GGAUACACAAGAGCGAUUGAAAUUAAGUCUGUGUAUCC
The experiment can be described thus: UV-Vis absorbance shift. To be noted: 30 mM MgCl2, 140 mM KCl, 10 mM NaCl; 50 mM Tris pH 7.0; 40 µM RNA, 40 µM FAD; ∆λmax 2.

The test system of experiment [15] is X2B2-G11U (RNA, aptamer) GGAUACACAAUAGCGAUUGAAACUAAGUCUGUGUAUCC
Kind of experiment: UV-Vis absorbance shift. Conditions: 30 mM MgCl2, 140 mM KCl, 10 mM NaCl; 50 mM Tris pH 7.0; 40 µM RNA, 40 µM FAD; ∆λmax 0.

Experiment [16] deals with X2B2-C14U-ΔA9 (RNA, aptamer) GGAUACACAGAGUGAUUGAAACUAAGUCUGUGUAUCC
Kind of experiment: UV-Vis absorbance shift. To be noted: 30 mM MgCl2, 140 mM KCl, 10 mM NaCl; 50 mM Tris pH 7.0; 40 µM RNA, 40 µM FAD; ∆λmax 8.

In experiment [17] the test system is X2B2-ΔA9 (RNA, aptamer) GGAUACACAGAGCGAUUGAAACUAAGUCUGUGUAUCC
The experiment can be described thus: UV-Vis absorbance shift. To be noted: 30 mM MgCl2, 140 mM KCl, 10 mM NaCl; 50 mM Tris pH 7.0; 40 µM RNA, 40 µM FAD; ∆λmax 2.

Experiment [18] concerns X2B2-C1 (RNA, aptamer) GGAUACACAAGAGCGAACGAAACUAGUUCUGUGUAUCC
The experiment can be described thus: UV-Vis absorbance shift. Conditions: 30 mM MgCl2, 140 mM KCl, 10 mM NaCl; 50 mM Tris pH 7.0; 40 µM RNA, 40 µM FAD; ∆λmax 0.

For experiment [19], the system named is X2B2-D1 (RNA, aptamer) GGAUACACAAGAGCGAACGAAACUAAGUCUGUGUAUCC
Kind of experiment: UV-Vis absorbance shift. Conditions: 30 mM MgCl2, 140 mM KCl, 10 mM NaCl; 50 mM Tris pH 7.0; 40 µM RNA, 40 µM FAD; ∆λmax 1.

For experiment [20], the system named is X2B2-A22U (RNA, aptamer) GGAUACACAAGAGCGAUUGAAUCUAAGUCUGUGUAUCC
Kind of experiment: UV-Vis absorbance shift. To be noted: 30 mM MgCl2, 140 mM KCl, 10 mM NaCl; 50 mM Tris pH 7.0; 40 µM RNA, 40 µM FAD; ∆λmax 2.

The subject of experiment [21] is X2B2-C14U-U24A (RNA, aptamer) GGAUACACAAGAGUGAUUGAAACAAAGUCUGUGUAUCC
The experiment can be described thus: UV-Vis absorbance shift. Conditions: 30 mM MgCl2, 140 mM KCl, 10 mM NaCl; 50 mM Tris pH 7.0; 40 µM RNA, 40 µM FAD; ∆λmax 1.

The test system of experiment [22] is X2B2-C14A (RNA, aptamer) GGAUACACAAGAGAGAUUGAAACUAAGUCUGUGUAUCC
The experiment can be described thus: UV-Vis absorbance shift. To be noted: 30 mM MgCl2, 140 mM KCl, 10 mM NaCl; 50 mM Tris pH 7.0; 40 µM RNA, 40 µM FAD; ∆λmax 5.

Experiment [23] relates to 12.8 (RNA, aptamer) GGGAAAAGCGAAUCAUACACAAGAGUGUGACGCACUUUAUGAUCGGAGGCCGUCAUUGUAUGGCGUGGGCAUAAGGUAUUUAAUUCCAUA
Kind of experiment: in-line probing. Conditions: 30 mM MgCl2; 25 mM Tris pH 8.0, 37 °C, 18 h; 500 µM FAD.

Experiment [24] concerns X2B2-C4 (RNA, aptamer) GGAUAGCCAAGAGCGAUUGAAACUAAGUCUGGCUAUCC
The experiment can be described thus: UV-Vis absorbance shift. Conditions: 30 mM MgCl2, 140 mM KCl, 10 mM NaCl; 50 mM Tris pH 7.0; 40 µM RNA, 40 µM FAD; ∆λmax 7.

The subject of experiment [25] is X2B2-U24A (RNA, aptamer) GGAUACACAAGAGCGAUUGAAACAAAGUCUGUGUAUCC
The experiment can be described thus: UV-Vis absorbance shift. Conditions: 30 mM MgCl2, 140 mM KCl, 10 mM NaCl; 50 mM Tris pH 7.0; 40 µM RNA, 40 µM FAD; ∆λmax 6.

Experiment [26] relates to 12.29 (RNA, aptamer) GGGAAAAGCGAAUCAUACACAAGAGCGAUUGAAACUAAGUCUGUGCUAUGUUCGUUAUCGCCGGUGGGGCAUAAGGUAUUUAAUUCCAUA
Kind of experiment: in-line probing. Conditions: 30 mM MgCl2; 25 mM Tris pH 8.0, 37 °C, 18 h; 500 µM FAD.

In experiment [27] the test system is X2B2-A12U (RNA, aptamer) GGAUACACAAGUGCGAUUGAAACUAAGUCUGUGUAUCC
Kind of experiment: UV-Vis absorbance shift. To be noted: 30 mM MgCl2, 140 mM KCl, 10 mM NaCl; 50 mM Tris pH 7.0; 40 µM RNA, 40 µM FAD; ∆λmax 0.

Experiment [28] concerns X2B2-A10U (RNA, aptamer) GGAUACACAUGAGCGAUUGAAACUAAGUCUGUGUAUCC
The experiment can be described thus: UV-Vis absorbance shift. To be noted: 30 mM MgCl2, 140 mM KCl, 10 mM NaCl; 50 mM Tris pH 7.0; 40 µM RNA, 40 µM FAD; ∆λmax 5.

Experiment [29] has as its system X2B2-BT1 (RNA, aptamer) GGAUACAAACGAGCGAUUGAAACUAAGUCGUUGUAUCC
The experiment can be described thus: UV-Vis absorbance shift. To be noted: 30 mM MgCl2, 140 mM KCl, 10 mM NaCl; 50 mM Tris pH 7.0; 40 µM RNA, 40 µM FAD; ∆λmax 5.

The subject of experiment [30] is X2B2-A21U (RNA, aptamer) GGAUACACAAGAGCGAUUGAUACUAAGUCUGUGUAUCC
Kind of experiment: UV-Vis absorbance shift. To be noted: 30 mM MgCl2, 140 mM KCl, 10 mM NaCl; 50 mM Tris pH 7.0; 40 µM RNA, 40 µM FAD; ∆λmax 1.

The subject of experiment [31] is X2B2-D3 (RNA, aptamer) GGAUACAGUAGAGCGAUUGAAACUAAGUCUGUGUAUCC
Kind of experiment: UV-Vis absorbance shift. Conditions: 30 mM MgCl2, 140 mM KCl, 10 mM NaCl; 50 mM Tris pH 7.0; 40 µM RNA, 40 µM FAD; ∆λmax 5.

Experiment [32] has as its system X2B2-ΔC14 (RNA, aptamer) GGAUACACAAGAGGAUUGAAACUAAGUCUGUGUAUCC
Kind of experiment: UV-Vis absorbance shift. Conditions: 30 mM MgCl2, 140 mM KCl, 10 mM NaCl; 50 mM Tris pH 7.0; 40 µM RNA, 40 µM FAD; ∆λmax 1.

Experiment [33] has as its system X2B2-D4 (RNA, aptamer) GGAUAGCCAAGAGCGAUUGAAACUAAGUCUGUGUAUCC
The experiment can be described thus: UV-Vis absorbance shift. To be noted: 30 mM MgCl2, 140 mM KCl, 10 mM NaCl; 50 mM Tris pH 7.0; 40 µM RNA, 40 µM FAD; ∆λmax 6.

The subject of experiment [34] is X2B2-G19U (RNA, aptamer) GGAUACACAAGAGCGAUUUAAACUAAGUCUGUGUAUCC
The experiment can be described thus: UV-Vis absorbance shift. To be noted: 30 mM MgCl2, 140 mM KCl, 10 mM NaCl; 50 mM Tris pH 7.0; 40 µM RNA, 40 µM FAD; ∆λmax 2.

In the case of `Cc1cc2nc3c(=O)[nH]c(=O)nc-3n(C[C@H](O)[C@H](O)[C@H](O)CO)c2cc1C`, the dissociation constant Kd in experiment [1] stood at 885 ± 85 nM; in [2], 5333 ± 722 nM.

For `Cc1cc2nc3c(=O)[nH]c(=O)nc-3n(C[C@H](O)[C@H](O)[C@H](O)COP(=O)(O)O)c2cc1C`, the binding result in [3], in [4] and in [5] was “yes” throughout. For the same molecule, the Kd in experiment [1] came to 243 ± 28 nM; in experiment [2], 1414 ± 97 nM.

For `Cc1cc2nc3c(=O)[nH]c(=O)nc-3n(C[C@H](O)[C@H](O)[C@H](O)COP(=O)(O)OP(=O)(O)OC[C@H]3O[C@@H](n4cnc5c(N)ncnc54)[C@H](O)[C@@H]3O)c2cc1C`, the binding entry in experiment [6] is recorded as “weak”; in experiment [7], “yes”; in experiment [8], “weak”; in experiment [9] it was “no”; in [10] it was “no”; in experiment [11], “yes”. For the same molecule, the binding entry in experiment [12] is “no”; in experiment [13], “weak”; in experiment [14], “weak”; in experiment [15] it was “no”; in experiment [16], “yes”; in experiment [17] it was “weak”. The binding result in experiment [18] is listed as “no”; in [19], “no”; in experiment [20] it was “weak”; in [21], “no”; in [22], “weak”; in [23] it was “yes”. Also, the binding result in experiment [24] is reported as “yes”; in [25] it was “yes”; in experiment [26], “yes”; in [27] it was “no”; in experiment [28] it was “yes”; in experiment [29], “weak”. Moreover, the binding result in experiment [30] is “no”; in experiment [31], “yes”; in experiment [32] it was “no”; in experiment [33], “yes”; in experiment [34] it was “weak”. Besides, the Kd in [1] stood at 818 ± 32 nM; in experiment [2], 7244 ± 398 nM.
